Test results: patent US12077503B2, “Substituted cyclic amides and their use as herbicides” (FMC CORPORATION, priority 2015, dated 2024)

Assays:
Format in all cases: in vivo
Kochia (Kochia scoparia) [1] = experiment: Test A postemergence; settings: Bassia scoparia, post-emergence, 240 h, postemergence, read-out: Kochia plant response rating
In short: (§1)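 Visual injury, scored on a 0–100 scale relative to untreated controls, was recorded about 10 d after application. Treatments were a preemergence soil spray over planted seeds or a postemergence spray on plants at the one- to two-leaf stage, 2 to 10 cm tall, all in loam soil–sand blend in the greenhouse.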

[2] = test system: blackgrass (Alopecurus myosuroides); experiment: Test A postemergence; settings: Alopecurus myosuroides, post-emergence, 240 h, postemergence, read-out: Blackgrass plant response rating
In short: as §1

[3] = test system: ragweed (common ragweed, Ambrosia elatior); experiment: Test A postemergence; settings: Ambrosia artemisiifolia, post-emergence, 240 h, postemergence, read-out: Ragweed plant response rating
In short: as §1

[4] = test system: ryegrass, Italian (Italian ryegrass, Lolium multiflorum); experiment: Test A postemergence; settings: Lolium multiflorum, post-emergence, 240 h, postemergence, read-out: Ryegrass, Italian plant response rating
In short: as §1

[5] = test system: giant foxtail (Setaria faberii); experiment: Test A postemergence; settings: Setaria faberi, post-emergence, 240 h, postemergence, read-out: Foxtail, Giant plant response rating
In short: as §1

[6] = test system: pigweed (Amaranthus retroflexus); experiment: Test A postemergence; settings: Amaranthus retroflexus, post-emergence, 240 h, postemergence, read-out: Pigweed plant response rating
In short: as §1

[7] = test system: barnyardgrass (Echinochloa crus-galli); experiment: Test A postemergence; settings: Echinochloa crus-galli, post-emergence, 240 h, postemergence, read-out: Barnyardgrass plant response rating
In short: as §1

corn (Zea mays) = experiment: Test A postemergence; settings: Zea mays, post-emergence, 240 h, postemergence, read-out: Corn plant response rating
In short: as §1

[8] = test system: Galium (catchweed bedstraw, Galium aparine); experiment: Test A postemergence; settings: Galium, post-emergence, 240 h, postemergence, read-out: Galium plant response rating
In short: as §1

[9] = test system: wheat (Triticum aestivum); experiment: Test A postemergence; settings: Triticum aestivum, post-emergence, 240 h, postemergence, read-out: Wheat plant response rating
In short: as §1

Kochia (Kochia scoparia) [10] = experiment: Test A preemergence; settings: Bassia scoparia, pre-emergence, 240 h, preemergence, 0 to 100 scale where 0 is no effect and 100 is complete control, read-out: Kochia plant response rating
In short: as §1

[11] = test system: ragweed (common ragweed, Ambrosia elatior); experiment: Test A preemergence; settings: Ambrosia artemisiifolia, pre-emergence, 240 h, preemergence, 0 to 100 scale where 0 is no effect and 100 is complete control, read-out: Ragweed plant response rating
In short: as §1

[12] = test system: ryegrass, Italian (Italian ryegrass, Lolium multiflorum); experiment: Test A preemergence; settings: Lolium multiflorum, pre-emergence, 240 h, preemergence, 0 to 100 scale where 0 is no effect and 100 is complete control, read-out: Ryegrass, Italian plant response rating
In short: as §1

[13] = test system: pigweed (Amaranthus retroflexus); experiment: Test A preemergence; settings: Amaranthus retroflexus, pre-emergence, 240 h, preemergence, 0 to 100 scale where 0 is no effect and 100 is complete control, read-out: Pigweed plant response rating
[14] = test system: barnyardgrass (Echinochloa crus-galli); experiment: Test A preemergence; settings: Echinochloa crus-galli, pre-emergence, 240 h, preemergence, 0 to 100 scale where 0 is no effect and 100 is complete control, read-out: Barnyardgrass plant response rating
In short: as §1

[15] = 125 g ai/ha, visual injury on 0 to 100 scale (0 no effect, 100 complete control), approx. 10 d
[16] = 500 g ai/ha, 0 to 100 scale, 0 is no effect, 100 is complete control

CN1CC(c2cccc(Br)c2)C(C(=O)Nc2ccccc2F)C1=O (stereo not drawn) [Compound 1132]
80%: pest or weed control at 125 g/ha [5, 15] | plant injury at 500 g/ha (corn (Zea mays); [16])
60%: plant injury at 125 g/ha (corn (Zea mays); [15])
0%: pest or weed control at 125 g/ha (Kochia (Kochia scoparia) [1]; [15]) | pest or weed control at 500 g/ha (Kochia (Kochia scoparia) [1]; [16]) | pest or weed control at 125 g/ha [3, 15] | pest or weed control at 500 g/ha [3, 16] | pest or weed control at 125 g/ha [4, 15] | pest or weed control at 125 g/ha [6, 15] | pest or weed control at 500 g/ha [6, 16] | pest or weed control at 125 g/ha [8, 15] | pest or weed control at 125 g/ha (Kochia (Kochia scoparia) [10]; 125 g ai/ha, approx. 10 d) | pest or weed control at 500 g/ha (Kochia (Kochia scoparia) [10]; 500 g ai/ha) | pest or weed control at 125 g/ha ([11]; 125 g ai/ha, approx. 10 d) | pest or weed control at 500 g/ha ([11]; 500 g ai/ha) | pest or weed control at 125 g/ha ([13]; 125 g ai/ha, approx. 10 d) | pest or weed control at 500 g/ha ([13]; 500 g ai/ha)
30%: pest or weed control at 125 g/ha [2, 15] | pest or weed control at 500 g/ha [4, 16] | pest or weed control at 500 g/ha [8, 16] | plant injury at 125 g/ha [9, 15] | pest or weed control at 125 g/ha ([12]; 125 g ai/ha, approx. 10 d)
70%: plant injury at 500 g/ha [9, 16]
90%: pest or weed control at 500 g/ha [5, 16] | pest or weed control at 125 g/ha [7, 15] | pest or weed control at 500 g/ha [7, 16] | pest or weed control at 125 g/ha ([14]; 125 g ai/ha, approx. 10 d) | pest or weed control at 500 g/ha ([14]; 500 g ai/ha)
50%: pest or weed control at 500 g/ha [2, 16] | pest or weed control at 500 g/ha ([12]; 500 g ai/ha)
